{"source": "ChEMBL document CHEMBL6087464", "about": "“Design, Synthesis, and Biological Evaluation of 3,4-Dihydroisoquinolin-1(2H)-one Derivatives as Protein Arginine Methyltransferase 5 Inhibitors for the Treatment of Non-Hodgkin's Lymphoma” (J Med Chem, 2025)", "key": {"Z-138 [1]": {"test_system": "Z-138", "test": "Induction of apoptosis in human Z138 cells assessed as viable cells at 0.4 nM incubated for 168 hrs by Annexin V-FITC/PI staining based flow cytometric analysis (reference value: 94.4 %)", "type": "functional", "details": "read-out: Activity"}, "Cytochrome P450 2C9": {"molecular_target": "Cytochrome P450 2C9 (Homo sapiens, UniProt P11712)", "sequence (P11712 whole entry)": "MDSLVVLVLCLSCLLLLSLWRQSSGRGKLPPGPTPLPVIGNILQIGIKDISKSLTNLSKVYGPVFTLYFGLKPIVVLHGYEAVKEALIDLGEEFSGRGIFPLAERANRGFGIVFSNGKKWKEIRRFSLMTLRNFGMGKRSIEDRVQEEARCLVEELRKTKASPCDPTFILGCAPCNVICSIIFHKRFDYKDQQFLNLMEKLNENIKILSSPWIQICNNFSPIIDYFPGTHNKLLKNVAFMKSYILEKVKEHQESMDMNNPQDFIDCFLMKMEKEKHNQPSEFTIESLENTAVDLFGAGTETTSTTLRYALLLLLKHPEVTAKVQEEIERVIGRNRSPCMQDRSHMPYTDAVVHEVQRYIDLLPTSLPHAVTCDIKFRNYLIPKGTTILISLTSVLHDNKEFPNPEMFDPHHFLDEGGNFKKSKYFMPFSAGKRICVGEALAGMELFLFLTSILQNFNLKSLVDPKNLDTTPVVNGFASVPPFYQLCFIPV", "test": "Inhibition of CYP2C9 (unknown origin)", "type": "ADME"}, "MOLM-13": {"test_system": "MOLM-13", "test": "Antiproliferative activity against human MOLM-13 cells measured after 4 to 5 days by CCK-8 assay", "type": "functional, cell-based"}, "[2]": {"test": "AUC (0 to t) in Sprague-Dawley rat at 2 mg/kg, iv by LC-MS/MS analysis", "type": "ADME, organism-based", "details": "in vivo"}, "[3]": {"test": "Metabolic stability in dog liver microsomes assessed as half-life at 1 uM measured upto 240 mins", "type": "ADME, Canis lupus familiaris, Microsome"}, "Z-138 [4]": {"test_system": "Z-138", "test": "Cell cycle arrest in human Z138 cells assessed as increase in DNA content at 50.0 nM incubated for 168 hrs by RNase A/PI staining based flow cytometric analysis relative to control", "type": "functional"}, "Cytochrome P450 2C19": {"molecular_target": "Cytochrome P450 2C19 (Homo sapiens, UniProt P33261)", "sequence (P33261 whole entry)": "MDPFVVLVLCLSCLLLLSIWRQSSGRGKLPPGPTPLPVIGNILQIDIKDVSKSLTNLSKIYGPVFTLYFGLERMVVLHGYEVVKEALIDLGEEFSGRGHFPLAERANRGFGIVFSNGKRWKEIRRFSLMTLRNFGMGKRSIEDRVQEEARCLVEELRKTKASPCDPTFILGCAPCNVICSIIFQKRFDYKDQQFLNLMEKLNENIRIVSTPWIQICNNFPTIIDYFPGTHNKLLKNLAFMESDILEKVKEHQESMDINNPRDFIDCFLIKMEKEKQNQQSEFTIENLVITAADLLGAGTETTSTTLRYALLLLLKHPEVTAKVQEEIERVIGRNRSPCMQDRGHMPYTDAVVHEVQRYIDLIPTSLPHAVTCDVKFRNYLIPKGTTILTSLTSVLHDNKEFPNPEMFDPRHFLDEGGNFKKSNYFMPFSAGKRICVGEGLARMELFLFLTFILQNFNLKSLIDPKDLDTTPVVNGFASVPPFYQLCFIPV", "test": "Inhibition of CYP2C19 (unknown origin)", "type": "ADME"}, "Z-138 [5]": {"test_system": "Z-138", "test": "Cell cycle arrest in human Z138 cells assessed as increase in DNA content at 0.4 nM incubated for 168 hrs by RNase A/PI staining based flow cytometric analysis relative to control", "type": "functional"}, "Z-138 [6]": {"test_system": "Z-138", "test": "Induction of apoptosis in human Z138 cells assessed as early apoptotic cells at 50.0 nM incubated for 168 hrs by Annexin V-FITC/PI staining based flow cytometric analysis (reference value: 1.68 %)", "type": "functional"}, "[7]": {"test": "Toxicity in Sprague-Dawley rat assessed as morphological changes in bone marrow at 31.25 to 125 mg/kg, po administered once a day for 14 days by H and E staining based analysis", "type": "organism-based", "details": "in vivo, 336 h, dose 31.25-125 mg/kg, time 14 day"}, "[8]": {"test": "Protein binding in monkey plasma", "type": "ADME, cell-free, Macaca mulatta", "details": "rhesus monkey, read-out: PPB (converted)"}, "[9]": {"test": "Metabolic stability in monkey liver microsomes assessed as half-life at 1 uM measured upto 240 mins", "type": "ADME, Macaca mulatta, Microsome", "details": "rhesus monkey"}, "[10]": {"test": "Toxicity in Sprague-Dawley rat assessed as morphological changes in thymus at 31.25 to 125 mg/kg, po administered once a day for 14 days by H and E staining based analysis", "type": "organism-based", "details": "in vivo, 336 h, dose 31.25-125 mg/kg, time 14 day"}, "[11]": {"test": "Metabolic stability in mouse liver microsomes assessed as half-life at 1 uM measured upto 240 mins", "type": "ADME, Microsome"}, "Z-138 [12]": {"test_system": "Z-138", "test": "Antiproliferative activity against PRMT5 knockout human Z138 cells measured after 7 days by CellTiter-Glo luminescence cell viability assay", "type": "functional, cell-based", "details": "Z-138, 168 h"}, "[13]": {"test": "Toxicity in Sprague-Dawley rat assessed as animal death at 31.25 to 125 mg/kg, po administered once a day for 14 days", "type": "organism-based", "details": "in vivo, 336 h, dose 31.25-125 mg/kg, time 14 day"}, "Z-138 [14]": {"test_system": "Z-138", "test": "Induction of apoptosis in human Z138 cells assessed as necrotic cells at 2.0 nM incubated for 168 hrs by Annexin V-FITC/PI staining based flow cytometric analysis (reference value: 3.54 %)", "type": "functional"}, "Z-138 [15]": {"test_system": "Z-138", "test": "Induction of apoptosis in human Z138 cells assessed as late apoptotic cells at 10.0 nM incubated for 168 hrs by Annexin V-FITC/PI staining based flow cytometric analysis (reference value: 0.37 %)", "type": "functional"}, "[16]": {"test": "Toxicity in Sprague-Dawley rat assessed as morphological changes in stomach at 31.25 to 125 mg/kg, po administered once a day for 14 days by H and E staining based analysis", "type": "organism-based", "details": "in vivo, 336 h, dose 31.25-125 mg/kg, time 14 day"}, "Z-138 [17]": {"test_system": "Z-138", "test": "Induction of apoptosis in human Z138 cells assessed as necrotic cells at 10.0 nM incubated for 168 hrs by Annexin V-FITC/PI staining based flow cytometric analysis (reference value: 3.54 %)", "type": "functional"}, "A-427": {"test_system": "A-427", "test": "Antiproliferative activity against human A-427 cells measured after 4 to 5 days by CCK-8 assay", "type": "functional, cell-based"}, "[18]": {"test": "AUC (0 to t) in Sprague-Dawley rat at 10 mg/kg, po by LC-MS/MS analysis", "type": "ADME, organism-based", "details": "Sprague-Dawley, in vivo"}, "NCI-H1299": {"test_system": "NCI-H1299", "test": "Antiproliferative activity against human NCI-H1299 cells measured after 4 to 5 days by CCK-8 assay", "type": "functional, cell-based"}, "Cytochrome P450 3A4": {"molecular_target": "Cytochrome P450 3A4 (Homo sapiens, UniProt P08684)", "sequence (P08684 whole entry)": "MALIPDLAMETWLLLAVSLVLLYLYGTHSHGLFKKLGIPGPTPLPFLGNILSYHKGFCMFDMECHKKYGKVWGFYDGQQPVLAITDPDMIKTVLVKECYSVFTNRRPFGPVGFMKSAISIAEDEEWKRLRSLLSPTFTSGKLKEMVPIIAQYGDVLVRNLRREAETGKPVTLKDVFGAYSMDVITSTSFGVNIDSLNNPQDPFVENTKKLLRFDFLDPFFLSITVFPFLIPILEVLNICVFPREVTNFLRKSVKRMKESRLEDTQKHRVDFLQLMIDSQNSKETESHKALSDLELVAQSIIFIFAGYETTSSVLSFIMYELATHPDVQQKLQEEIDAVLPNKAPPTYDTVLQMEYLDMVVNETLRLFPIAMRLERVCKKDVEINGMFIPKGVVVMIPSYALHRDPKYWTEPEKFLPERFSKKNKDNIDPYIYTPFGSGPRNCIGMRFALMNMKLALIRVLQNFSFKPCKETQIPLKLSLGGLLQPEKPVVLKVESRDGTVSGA", "test": "Inhibition of CYP3A4 (unknown origin) using testosterone as substrate", "type": "ADME"}, "[19]": {"test": "Metabolic stability in human liver microsomes assessed as half-life at 1 uM measured upto 240 mins", "type": "ADME, Microsome"}, "A549": {"test_system": "A549", "test": "Antiproliferative activity against human A549 cells measured after 4 to 5 days by CCK-8 assay", "type": "functional, cell-based"}, "Ishikawa": {"test_system": "Ishikawa", "test": "Antiproliferative activity against human Ishikawa cells measured after 4 to 5 days by CCK-8 assay", "type": "functional, cell-based"}, "Z-138 [20]": {"test_system": "Z-138", "test": "Antitumor activity against human Z138 cells xenografted in female SCID.BG nude mouse assessed as tumor growth inhibition at 12.5 mg/kg, po administered twice a day for 21 days relative to control", "type": "functional", "details": "Z-138, 504 h, time 21 day, read-out: TGI"}, "[21]": {"test": "Toxicity in Sprague-Dawley rat assessed as structural changes in stomach at 31.25 to 125 mg/kg, po administered once a day for 14 days by H and E staining based analysis", "type": "organism-based", "details": "in vivo, 336 h, dose 31.25-125 mg/kg, time 14 day"}, "[22]": {"molecular_target": "T1, Histone-arginine methyltransferase CARM1 (Homo sapiens, UniProt Q86X55)", "T1 sequence (Q86X55 whole entry)": "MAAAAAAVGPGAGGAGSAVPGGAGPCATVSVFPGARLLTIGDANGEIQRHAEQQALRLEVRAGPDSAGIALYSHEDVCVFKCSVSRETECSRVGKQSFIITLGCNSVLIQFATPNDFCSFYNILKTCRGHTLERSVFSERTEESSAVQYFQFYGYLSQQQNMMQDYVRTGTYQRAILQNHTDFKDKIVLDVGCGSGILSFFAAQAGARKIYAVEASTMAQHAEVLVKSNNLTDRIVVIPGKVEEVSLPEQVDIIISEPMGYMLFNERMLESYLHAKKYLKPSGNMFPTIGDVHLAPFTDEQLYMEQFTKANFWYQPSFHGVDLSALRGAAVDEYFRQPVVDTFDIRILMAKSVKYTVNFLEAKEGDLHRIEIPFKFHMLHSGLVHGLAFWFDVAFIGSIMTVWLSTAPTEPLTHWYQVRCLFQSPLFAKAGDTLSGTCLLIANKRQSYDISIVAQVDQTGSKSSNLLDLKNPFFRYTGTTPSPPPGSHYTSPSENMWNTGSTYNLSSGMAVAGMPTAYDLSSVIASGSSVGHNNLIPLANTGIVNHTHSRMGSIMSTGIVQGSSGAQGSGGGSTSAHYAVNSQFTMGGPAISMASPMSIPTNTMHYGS", "test": "Inhibition of PRMT4 (unknown origin)"}, "[23]": {"molecular_target": "Protein arginine N-methyltransferase 3 (Homo sapiens, UniProt O60678)", "sequence (O60678 whole entry)": "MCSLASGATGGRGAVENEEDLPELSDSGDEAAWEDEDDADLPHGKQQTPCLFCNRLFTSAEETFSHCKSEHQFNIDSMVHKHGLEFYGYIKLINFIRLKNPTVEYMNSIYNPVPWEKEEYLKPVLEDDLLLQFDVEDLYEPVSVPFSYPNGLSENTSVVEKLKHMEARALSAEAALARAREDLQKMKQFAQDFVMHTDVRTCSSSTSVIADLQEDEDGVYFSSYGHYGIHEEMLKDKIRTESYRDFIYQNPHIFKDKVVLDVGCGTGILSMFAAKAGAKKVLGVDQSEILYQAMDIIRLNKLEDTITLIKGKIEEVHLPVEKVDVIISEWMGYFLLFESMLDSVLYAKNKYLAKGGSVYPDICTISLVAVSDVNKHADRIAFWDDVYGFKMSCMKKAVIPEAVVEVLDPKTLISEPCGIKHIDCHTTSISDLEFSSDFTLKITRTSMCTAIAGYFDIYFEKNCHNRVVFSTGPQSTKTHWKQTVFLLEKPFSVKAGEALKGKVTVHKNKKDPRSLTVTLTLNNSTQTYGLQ", "test": "Inhibition of PRMT3 (unknown origin)"}, "[24]": {"test": "Protein binding in human plasma", "type": "ADME, cell-free", "details": "read-out: PPB (converted)"}, "[25]": {"test": "Toxicity in Sprague-Dawley rat assessed as morphological changes in caecum at 31.25 to 125 mg/kg, po administered once a day for 14 days by H and E staining based analysis", "type": "organism-based", "details": "in vivo, 336 h, dose 31.25-125 mg/kg, time 14 day"}}, "data": [{"smiles": "CC(=O)N1CC2(CC(Nc3cc4c(cn3)C3(CC3)CN(C[C@H](O)CN3CCc5ccccc5C3)C4=O)C2)C1", "values": [{"measurement": "viability at 0.0004 µM", "setting": "Z-138 [1]", "value": 95.3, "unit": "%"}, {"measurement": "IC50", "setting": "Cytochrome P450 2C9", "value": "> 50", "unit": "µM"}, {"measurement": "IC50", "setting": "MOLM-13", "value": 0.0301, "unit": "µM"}, {"measurement": "AUC(0-t)", "setting": "[2]", "value": 0.771, "unit": "µg·h/mL"}, {"measurement": "half-life at 1 µM", "setting": "[3]", "value": 152, "unit": "min"}, {"measurement": "Activity", "setting": "Z-138 [4]", "value": 71.6, "unit": "%"}, {"measurement": "IC50", "setting": "Cytochrome P450 2C19", "value": "> 50", "unit": "µM"}, {"measurement": "Activity", "setting": "Z-138 [5]", "value": 52.4, "unit": "%"}, {"measurement": "Activity", "setting": "Z-138 [6]", "value": 78.2, "unit": "%"}, {"measurement": "Activity", "setting": "[7]", "value": "Non-toxic"}, {"measurement": "fraction unbound", "setting": "[8]", "value": 0.11}, {"measurement": "half-life at 1 µM", "setting": "[9]", "value": 18.2, "unit": "min"}, {"measurement": "Activity", "setting": "[10]", "value": "Non-toxic"}, {"measurement": "half-life at 1 µM", "setting": "[11]", "value": 83.6, "unit": "min"}, {"measurement": "IC50", "setting": "Z-138 [12]", "value": "> 10", "unit": "µM"}, {"measurement": "Activity", "setting": "[13]", "value": "Non-toxic"}, {"measurement": "Activity", "setting": "Z-138 [14]", "value": 6.68, "unit": "%"}, {"measurement": "Activity", "setting": "Z-138 [15]", "value": 32.4, "unit": "%"}, {"measurement": "Activity", "setting": "[16]", "value": "Non-toxic"}, {"measurement": "Activity", "setting": "Z-138 [17]", "value": 3.87, "unit": "%"}, {"measurement": "IC50", "setting": "A-427", "value": 0.0723, "unit": "µM"}, {"measurement": "AUC(0-t)", "setting": "[18]", "value": 1.03, "unit": "µg·h/mL"}, {"measurement": "IC50", "setting": "NCI-H1299", "value": 0.0556, "unit": "µM"}, {"measurement": "IC50", "setting": "Cytochrome P450 3A4", "value": "> 50", "unit": "µM"}, {"measurement": "half-life at 1 µM", "setting": "[19]", "value": 17.5, "unit": "min"}, {"measurement": "IC50", "setting": "A549", "value": 0.0137, "unit": "µM"}, {"measurement": "IC50", "setting": "Ishikawa", "value": 0.00547, "unit": "µM"}, {"measurement": "inhibition in vivo at 12.5 mg/kg", "setting": "Z-138 [20]", "value": 104, "unit": "%"}, {"measurement": "Activity", "setting": "[21]", "value": "Non-toxic"}, {"measurement": "IC50", "setting": "[22]", "value": "> 10", "unit": "µM"}, {"measurement": "IC50", "setting": "[23]", "value": "> 10", "unit": "µM"}, {"measurement": "fraction unbound", "setting": "[24]", "value": 0.106}, {"measurement": "Activity", "setting": "[25]", "value": "Non-toxic"}]}, {"smiles": "CC(=O)N1CCC(Nc2cc(C(=O)NC[C@H](O)CN3CCc4ccccc4C3)ncn2)CC1", "note": "[PEMRAMETOSTAT]", "values": [{"measurement": "viability at 0.0004 µM", "setting": "Z-138 [1]", "value": 95.6, "unit": "%"}, {"measurement": "AUC(0-t)", "setting": "[2]", "value": 0.598, "unit": "µg·h/mL"}, {"measurement": "Activity", "setting": "Z-138 [4]", "value": 59.2, "unit": "%"}, {"measurement": "Activity", "setting": "Z-138 [5]", "value": 50.9, "unit": "%"}, {"measurement": "Activity", "setting": "Z-138 [6]", "value": 34.1, "unit": "%"}, {"measurement": "Activity", "setting": "Z-138 [14]", "value": 2.64, "unit": "%"}, {"measurement": "Activity", "setting": "Z-138 [15]", "value": 1.53, "unit": "%"}, {"measurement": "Activity", "setting": "Z-138 [17]", "value": 5.31, "unit": "%"}, {"measurement": "AUC(0-t)", "setting": "[18]", "value": 0.404, "unit": "µg·h/mL"}, {"measurement": "IC50", "setting": "[22]", "value": "> 10", "unit": "µM"}, {"measurement": "IC50", "setting": "[23]", "value": "> 10", "unit": "µM"}]}]}
